{"source": "paper PMC11339798", "about": "“Dual inhibitors of Pseudomonas aeruginosa virulence factors LecA and LasB” (Chemical Science, 2024)", "key": {"[1]": {"test_system": "LecA-FITC binding to human A549 cells", "experiment": "Inhibition of LecA-FITC adhesion to A549 cells by fluorescence microscopy", "assay_type": "cell-based", "details": "concentrations tested 1-100 µM, 10 μM LecA-FITC, 4 °C, 30 min", "procedure": "LecA-mediated cell adhesion is crucial for the initial infection and host-cell invasion of P. aeruginosa. Therefore, compounds 1 and 2, a combination of 1+2 and the dual inhibitor 12 were assessed for their ability to inhibit LecA-binding to human A549 cells. 10 μM of LecA-FITC and different concentrations of the respective compounds were incubated at 4 °C for 30 min with confluent A549 cells.\n10 min, facilitating the separation of bacterial cells from the supernatant. The latter was filtered through a 0.22 µm sterile filter and stored at –80 °C until further use. […]\nCO2. […] The plates were then incubated for an additional 30 min at 37 °C and then, the UV absorbance was measured using a PHERAstar microplate reader. The test samples were read at a wavelength of 550 nm, while the blank was read at 620 nm. At last, the data were statistically analyzed and presented graphically using GraphPad Prism 9 (Figure S4 and S5). […]\nhave any negative effects. The plate was then incubated at 4 °C for 30 min and wells were washed 5 times with PBS prior to imaging via fluorescence microscopy.\nFluorescence image acquisition, processing, and quantification\nFluorescence images were captured using an inverted fluorescence microscope (Leica DMi8) equipped with a 20x objective (HC PL APO CS2 20x/0.75 IMM UV), an FITC filter cube (EX: […]"}, "A549 cells": {"test_system": "A549 cells", "experiment": "Inhibition of LasB-dependent cytotoxicity of P. aeruginosa PAO1 culture supernatant on A549 cells (MTT)", "assay_type": "cell-based, human", "details": "1 μM compound, 10% (v/v) PAO1 supernatant", "procedure": "Next, we set out to analyze the ability of the dual inhibitor 12 and the individual treatment or combination of galactoside 1 and thiol 2 to reduce LasB-dependent cytotoxicity from P. aeruginosa PAO1 culture supernatant on A549 cells. None of the investigated compounds influenced A549 cell viability at 100 μM in the absence of bacterial culture supernatant (Fig. S4 ^†). […]\nIn vitro evaluation of 12 and a combination of 1 and 2 using P. aeruginosa culture supernatant and A549 cells in a cell viability assay\nThe A549 cell line, derived from human lung adenocarcinoma, was grown in Dulbecco's Modified Eagle Medium (DMEM) supplemented with 10% Fetal Bovine Serum (FBS) and 1% penicillin-streptomycin. The cells were cultured following standard protocols for cell […]\nTo prepare the bacterial culture supernatant, individual flasks containing 15 mL of lysogeny broth (LB) culture medium were inoculated with PAO1 or PAO1 ΔlasB strains. Culture flasks were placed on a shaker and incubated at 37 °C and 180 rpm overnight for 18 hours. Following incubation, the bacterial cultures were subjected to centrifugation at 4 °C and 5000 rpm for […]\n10 min, facilitating the separation of bacterial cells from the supernatant. The latter was filtered through a 0.22 µm sterile filter and stored at –80 °C until further use.\nIn a flat bottom 96-well plate (Corning™ Costar™), each well was seeded with 2.5–3.5*10 3 cells in 100 µL DMEM/FCS and then incubated at a temperature of 37 °C with 5% CO2 for 24 hours. Then, compounds 12 and 1 combined with 2 in concentrations of 100 µM, 10 µM, and 1 µM were mixed with 10% (v/v) of culture supernatant of P. aeruginosa PAO1 (DSM 22644, ATCC 15692) in DMEM/FCS. To minimize the potential negative effect of DMSO, the compound was initially dissolved in 99.9% DMSO, and a final assay concentration of 0.5% DMSO was applied. Additionally, the cells were exposed to 10% (v/v) PAO1 ΔlasB culture supernatant to analyze the effect caused by LasB, while DMEM/FCS without any treatment served as a control. The plates were then incubated at 37 °C with 5% CO2 for 24 hours before conducting the MTT assay.\nTo assess cell viability, the medium in the well plates was aspirated and a single wash was performed using 100 µL of phosphate buffered saline, pH 7.4 (PBS). A solution of 5 mg MTT (3-(4,5-dimethylthiazol-2-yl)-2,5-diphenyl tetrazolium bromide) per mL PBS was prepared and diluted to a concentration of 10% (v/v) in DMEM/FCS. Subsequently, 100 µL of this MTT solution was added to each well, and the plates were incubated at 37 °C for 3 hours with 5%\nCO2. After incubation, the MTT solution was carefully removed, and the formazan crystals were dissolved by adding 150 µL of lysis solution (250 mL DMSO, 25 g SDS, and 1.25 mL AcOH) to each well. The plates were then incubated for an additional 30 min at 37 °C and then, the UV absorbance was measured using a PHERAstar microplate reader. The test samples were read at a wavelength of 550 nm, while the blank was read at 620 nm. At last, the data were statistically analyzed and presented graphically using GraphPad Prism 9 (Figure S4 and S5).\nEvaluation of compounds 1, 2 and 12 in inhibiting LecA adhesion to A549 cells via […]\nThe A549 cell line were cultured following the protocols for cell maintenance described above.\nIn a flat-bottom cell culture black 96-well plate (Greiner Bio-One, #Cat 655090) each well was seeded with 1*104 cells in 100 µL DMEM/FCS and subsequently, incubated overnight at 37 °C with 5% CO2. […]"}, "LasB [2]": {"biological_target": "T1, LasB (Pseudomonas aeruginosa, UniProt Q02RJ6)", "T1 construct": "P. aeruginosa PA14 culture supernatant; made in house; host or cells: native secreted enzyme purified from P. aeruginosa PA14 culture supernatant (not recombinant)", "T1 sequence (Q02RJ6 198-498)": "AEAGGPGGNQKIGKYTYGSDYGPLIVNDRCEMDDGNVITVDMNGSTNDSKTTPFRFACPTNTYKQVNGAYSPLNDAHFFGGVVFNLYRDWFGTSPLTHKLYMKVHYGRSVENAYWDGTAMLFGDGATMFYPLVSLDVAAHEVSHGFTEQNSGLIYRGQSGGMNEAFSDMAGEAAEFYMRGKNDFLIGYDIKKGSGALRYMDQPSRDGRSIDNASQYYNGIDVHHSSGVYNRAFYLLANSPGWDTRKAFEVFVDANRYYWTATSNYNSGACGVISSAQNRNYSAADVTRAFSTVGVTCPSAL", "details": "previously observed activities of reported inhibitors; cited from earlier work"}, "LecA": {"biological_target": "T2, LecA (Pseudomonas aeruginosa, UniProt Q05097)", "T2 construct": "made in house; host or cells: E. coli (plasmid pET25-pail)", "T2 sequence (Q05097 whole entry)": "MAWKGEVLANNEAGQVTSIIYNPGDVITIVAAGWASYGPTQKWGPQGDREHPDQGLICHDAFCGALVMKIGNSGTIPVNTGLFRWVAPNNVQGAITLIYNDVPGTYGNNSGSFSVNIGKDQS", "experiment": "Surface plasmon resonance direct LecA binding assay (immobilized LecA)", "parameters": "species or system P. aeruginosa", "details": "for time to reach equilibrium binding with immobilized LecA / k a / k d: SPR; for k a / k d: immobilized LecA", "excerpt": "Therefore, we measured the LecA affinity of thiol derivatives 17, 18, 24 and 25 and disulfides 26a, 26b and 27 using surface plasmon resonance (SPR) with LecA covalently immobilized on a sensor chip via amide coupling (Fig. 5 and Table 1). […] Thiols 17, 18, 24 and 25 reached equilibrium binding within 60 s of interaction with immobilized LecA, followed by their dissociation with moderate off-rates. […] Due to the very small off-rates for 26a, 26b and 27, these values have been calculated based on the response at […] of the injected compound and monitoring their dissociation for 30 min (Fig. S2 ^†). The observed very tight binding to immobilized LecA required optimization of the protein surface regeneration procedure. Effective conditions were identified as one injection of 50 mm isopropyl β-D-thiogalactoside in the running buffer, followed by one injection of 20 mm EDTA disodium salt in water. The regenerated chip surface was controlled using an injection of 1 to ensure that the activity of LecA was maintained.\nSurface plasmon resonance direct LecA binding assay\nSPR experiments were performed on a Reichert 2-channel SPR SR7500DC (Reichert Technologies Life Sciences, Buffalo, NY, USA) at 25 °C. For LecA immobilization, the surface of a HC1000M sensor chip (XanTec bioanalytics GmbH, Düsseldorf, Germany) was preequilibrated with borate buffer (1 M NaCl, 0.1 M sodium borate pH 9.0), followed by activation of the polycarboxylate hydrogel with 0.2 M N-hydroxysuccinimide (NHS) and 0.4 M 1-ethyl-3-(3-dimethylaminopropyl)carbodiimide hydrochloride (EDC‧HCl) in MilliQ water in both channels for 240 s (flow rate 10 μL/min) until the binding response reached 1200 RU.\nThen, LecA (100 μg/mL) in 10 mM sodium acetate pH 3.6 was injected on the activated chip surface of one channel (injection time 420 s, flow rate 10 μL/min) and 6000 RU of LecA were immobilized. Unreacted NHS esters in both channels were blocked with 1 M ethanolamine hydrochloride in MilliQ water pH 8.5 (injection time 360 s, flow rate 10 μL/min).\nTest compound stock solutions were prepared in DMSO (20 mM stocks for monovalent LecA inhibitors, 20 µM stocks for divalent LecA inhibitors) and were subsequently diluted in 10 mM phosphate buffer (pH 7.4, 2.7 mM KCl, 137 mM NaCl, 100 μM CaCl2) to obtain solutions with […]\nMonovalent inhibitors 17, 18, 24 and 25 were injected for 120 s (flow rate 50 μL/min) at concentrations ranging from 0.39–100 µM. Divalent inhibitors 26a, 26b and 27 were injected for 120 s (flow rate 50 μL/min) at concentrations 50–350 nM. The chip surface was regenerated after each inhibitor injection by one injection of 50 mM IPTG in running buffer (10 mM phosphate buffer, pH 7.4, 2.7 mM KCl, 137 mM NaCl, 100 μM CaCl2, 2% DMSO) followed by one injection 20 mM EDTA disodium salt in MilliQ water, and then followed by three injections of the running buffer (injection time 120 s, flow rate 50 μL/min). 100 µM pNP-Gal (1) in running buffer was injected before each analyte to monitor and ensure chip regeneration and […]\nAffinity/equilibrium analysis was performed for 1 on the same chip. A stock solution of 1 (10 mM in PBS/CaCl2 buffer) was prepared, then diluted to the required concentrations in running buffer and injected at 1.56–400 µM (injection time 60 s, flow rate 50 μL/min) without regeneration steps. Data analysis was performed using TraceDrawer software (Ridgeview Instruments) using a 1:1 binding model to fit the experimental data. Spikes at the end of the injections were removed in TraceDrawer during the data analysis."}, "LasB [3]": {"biological_target": "T1, LasB", "experiment": "FRET-based in vitro LasB inhibition (proteolysis) assay", "assay_type": "biochemical, P. aeruginosa PA14", "procedure": "The LasB activity of the thiol derivatives 11, 12, 17, 18, 24 and 25 was tested using a functional FRET-based in vitro proteolysis assay (Fig. 4A). […]\nExpression and purification of LasB and LecA\nLecA was expressed recombinantly using E. coli pET25-pail, whereas LasB was isolated from P. aeruginosa PA14 culture supernatant as described previously. 1,2 […]\nIn vitro inhibition assay for LasB\nThe in vitro inhibition assay was performed as described previously,2 using purified LasB (final concentration 0.3 nM), the fluorogenic substrate 2-aminobenzoyl-Ala-Gly-Leu-Ala-4-nitrobenzylamide (purchased from Peptides International (Louisville, KY, USA) or Vivitide, LLC (Gardner, MA, USA), final concentration 150 µM)) in assay buffer (50 mM Tris, pH 7.2, 2.5 mM CaCl2, 0.075% Pluronic F-127, 5% DMSO). Fluorescence was measured using a CLARIOstar plate reader (BMG Labtech, Ortenberg, Germany). IC50 values were calculated using GraphPad Prism 8 (GraphPad Software, San Diego, CA, USA) from at least three independent experiments performed in duplicate."}}, "note": "Read-outs that look alike come from different tables or passages of the source."}
{"smiles": "Cc1ccc(NC(=O)C(S)CC(C)C)cc1", "note": "(centres unmarked) [Compound 2, reference compound]", "values": [{"measurement": "inhibition of binding of LecA-FITC to A549 cells", "setting": "[1]", "result": "failed to do so"}, {"measurement": "A549 cell viability under PAO1 culture supernatant", "setting": "A549 cells", "result": "neither 1 nor 2 nor their combination had any effect"}]}
{"smiles": "O=C(Nc1ccccc1)C(S)Cc1ccccc1", "note": "(centres unmarked) [Compound 3]", "values": [{"measurement": "IC50", "setting": "LasB [2]", "result": 1200, "unit": "nM"}]}
{"smiles": "O=C(Nc1ccc(S[C@@H]2O[C@H](CO)[C@H](O)[C@H](O)[C@H]2O)cc1)[C@H](S)Cc1ccccc1", "note": "[Compound 17]", "values": [{"measurement": "Kd", "setting": "LecA", "result": "1300 ± 540", "unit": "nM"}, {"measurement": "time to reach equilibrium binding with immobilized LecA", "setting": "LecA", "result": "≤ 60", "unit": "s"}, {"measurement": "k a", "setting": "LecA", "result": "0.71 ± 0.14 ×10^4 M^−1 s^−1"}, {"measurement": "k d", "setting": "LecA", "result": "86 ± 20 ×10^−4 s^−1"}, {"measurement": "IC50", "setting": "LasB [3]", "result": 730, "unit": "nM"}]}
{"smiles": "CC(C)C[C@@H](S)C(=O)Nc1ccc(S[C@@H]2O[C@H](CO)[C@H](O)[C@H](O)[C@H]2O)cc1", "note": "[Compound 18]", "values": [{"measurement": "Kd", "setting": "LecA", "result": "630 ± 290", "unit": "nM"}, {"measurement": "time to reach equilibrium binding with immobilized LecA", "setting": "LecA", "result": "≤ 60", "unit": "s"}, {"measurement": "k a", "setting": "LecA", "result": "1.41 ± 0.47 ×10^4 M^−1 s^−1"}, {"measurement": "k d", "setting": "LecA", "result": "82 ± 11 ×10^−4 s^−1"}, {"measurement": "IC50", "setting": "LasB [3]", "result": 510, "unit": "nM"}]}
{"smiles": "O=C(Nc1ccc(S[C@@H]2O[C@H](CO)[C@H](O)[C@H](O)[C@H]2O)cc1)[C@@H](S)Cc1ccccc1", "note": "[Compound 24]", "values": [{"measurement": "Kd", "setting": "LecA", "result": "840 ± 160", "unit": "nM"}, {"measurement": "time to reach equilibrium binding with immobilized LecA", "setting": "LecA", "result": "≤ 60", "unit": "s"}, {"measurement": "k a", "setting": "LecA", "result": "0.88 ± 0.23 ×10^4 M^−1 s^−1"}, {"measurement": "k d", "setting": "LecA", "result": "72 ± 5 ×10^−4 s^−1"}, {"measurement": "IC50", "setting": "LasB [3]", "result": 220, "unit": "nM"}]}
{"smiles": "CC(C)C[C@H](S)C(=O)Nc1ccc(S[C@@H]2O[C@H](CO)[C@H](O)[C@H](O)[C@H]2O)cc1", "note": "[Compound 25]", "values": [{"measurement": "Kd", "setting": "LecA", "result": "1000 ± 590", "unit": "nM"}, {"measurement": "time to reach equilibrium binding with immobilized LecA", "setting": "LecA", "result": "≤ 60", "unit": "s"}, {"measurement": "k a", "setting": "LecA", "result": "0.90 ± 0.31 ×10^4 M^−1 s^−1"}, {"measurement": "k d", "setting": "LecA", "result": "85 ± 2 ×10^−4 s^−1"}, {"measurement": "IC50", "setting": "LasB [3]", "result": 770, "unit": "nM"}]}
